Counter-ions that a name gives are not always drawn.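 Test compounds were applied to cells in 96-well plates for 48 hours at 5 doses. At the GI50, growth is halved.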 Active and inactive are the calls of the source. Cut-off read from the data, not from the text of the source: active = GI50 up to about 1.1 µM and inactive = higher.
How the values were obtained:
Experiment in all cases: NCI tumour cell line growth inhibition, 48 h
HOP-18 = tested on: HOP-18
TK-10 = tested on: TK-10
HOP-92 = tested on: HOP-92
A498 = tested on: A498
DLD-1 = tested on: DLD-1
K562 = tested on: K562
SNB-78 = tested on: SNB-78
CAKI-1 = tested on: CAKI-1
DMS-273 = tested on: DMS-273
HCT-116 = tested on: HCT-116
NCI-H226 = tested on: NCI-H226
HL-60 = tested on: HL-60
MDA-MB-435 = tested on: MDA-MB-435
U-251 = tested on: U-251
XF498 = tested on: XF498
SR = tested on: SR
UACC-257 = tested on: UACC-257
CCRF-CEM = tested on: CCRF-CEM
KM-20L2 = tested on: KM-20L2
ACHN = tested on: ACHN
A549 = tested on: A549
SNB-19 = tested on: SNB-19
UACC-62 = tested on: UACC-62
SK-MEL-5 = tested on: SK-MEL-5
RPMI-8226 = tested on: RPMI-8226
HT-29 = tested on: HT-29
SF-268 = tested on: SF-268
COLO 205 = tested on: COLO 205
KM12 = tested on: KM12
OVCAR-4 = tested on: OVCAR-4
HCC 2998 = tested on: HCC 2998
786-0 = tested on: 786-0
NCI-H23 = tested on: NCI-H23
IGROV-1 = tested on: IGROV-1
HCT-15 = tested on: HCT-15
SW-620 = tested on: SW-620
M19-MEL = tested on: M19-MEL
SF-539 = tested on: SF-539
Malme-3M = tested on: Malme-3M
LOX IMVI = tested on: LOX IMVI
NCI-H460 = tested on: NCI-H460
EKVX = tested on: EKVX
RXF 393 = tested on: RXF 393
UO-31 = tested on: UO-31
SK-MEL-2 = tested on: SK-MEL-2
NCI-H522 = tested on: NCI-H522
OVCAR-5 = tested on: OVCAR-5
SN12C = tested on: SN12C
MOLT-4 = tested on: MOLT-4
SK-MEL-28 = tested on: SK-MEL-28
LXFL 529 = tested on: LXFL 529
DMS-114 = tested on: DMS-114
SNB-75 = tested on: SNB-75
SK-OV-3 = tested on: SK-OV-3
SF-295 = tested on: SF-295

For `O=C1c2c(O)ccc(O)c2C(=O)c2c(NCCNCCO)ccc(NCCNCCO)c21` [MITOXANTRONE HYDROCHLORIDE], the GI50 (HOP-18) was 0.126 µM (active), the GI50 (TK-10) was 0.423 µM (active) and the GI50 (HOP-92) was 0.0177 µM (active). The GI50 (A498) was 0.0619 µM (active), the GI50 (DLD-1) was 0.491 µM (active) and the GI50 (K562) was 0.118 µM (active). For the same compound, the GI50 (SNB-78) was 0.204 µM (active), the GI50 (CAKI-1) was 0.00899 µM (active) and the GI50 (DMS-273) was 0.0119 µM (active). For the same compound, the GI50 (HCT-116) was 0.0553 µM (active), the GI50 (NCI-H226) was 0.0153 µM (active) and the GI50 (HL-60) was 0.0103 µM (active). The GI50 (MDA-MB-435) was 0.471 µM (active), the GI50 (U-251) was 0.0091 µM (active) and the GI50 (XF498) was 0.0136 µM (active). For the same compound, the GI50 (SR) was 0.00764 µM (active), the GI50 (UACC-257) was 1.89 µM (inactive) and the GI50 (CCRF-CEM) was 0.00598 µM (active). For the same compound, the GI50 (KM-20L2) was 0.384 µM (active) and the GI50 (ACHN) was 0.0115 µM (active).
In the case of `O=C(O)CS` [THIOGLYCOLIC ACID], the GI50 (A549) was > 100 µM (inactive), the GI50 (SNB-19) was > 100 µM (inactive) and the GI50 (UACC-62) was > 100 µM (inactive). The GI50 (TK-10) was > 100 µM (inactive), the GI50 (SK-MEL-5) was > 100 µM (inactive) and the GI50 (HOP-92) was > 100 µM (inactive). For the same compound, the GI50 (RPMI-8226) was > 100 µM (inactive), the GI50 (HT-29) was > 100 µM (inactive) and the GI50 (DLD-1) was > 100 µM (inactive). For the same compound, the GI50 (SF-268) was > 100 µM (inactive), the GI50 (COLO 205) was > 100 µM (inactive) and the GI50 (K562) was > 100 µM (inactive). The GI50 (KM12) was > 100 µM (inactive), the GI50 (OVCAR-4) was > 100 µM (inactive) and the GI50 (HCC 2998) was > 100 µM (inactive). The GI50 (786-0) was > 100 µM (inactive), the GI50 (NCI-H23) was > 100 µM (inactive) and the GI50 (IGROV-1) was > 100 µM (inactive). The GI50 (HCT-15) was greater than 100 µM, the GI50 (SNB-78) was > 100 µM (inactive) and the GI50 (SW-620) was > 100 µM (inactive). For the same compound, the GI50 (M19-MEL) was > 100 µM (inactive), the GI50 (SF-539) was > 100 µM (inactive) and the GI50 (Malme-3M) was > 100 µM (inactive). The GI50 (LOX IMVI) was > 100 µM (inactive), the GI50 (NCI-H460) was > 100 µM (inactive) and the GI50 (CAKI-1) was > 100 µM (inactive). The GI50 (DMS-273) was > 100 µM (inactive), the GI50 (HCT-116) was > 100 µM (inactive) and the GI50 (NCI-H226) was > 100 µM (inactive). The GI50 (EKVX) was > 100 µM (inactive), the GI50 (RXF 393) was > 100 µM (inactive) and the GI50 (UO-31) was > 100 µM (inactive). For the same compound, the GI50 (HL-60) was > 100 µM (inactive), the GI50 (SK-MEL-2) was > 100 µM (inactive) and the GI50 (NCI-H522) was > 100 µM (inactive). For the same compound, the GI50 (U-251) was > 100 µM (inactive), the GI50 (OVCAR-5) was > 100 µM (inactive) and the GI50 (XF498) was > 100 µM (inactive). For the same compound, the GI50 (SN12C) was > 100 µM (inactive), the GI50 (SR) was > 100 µM (inactive) and the GI50 (UACC-257) was > 100 µM (inactive). The GI50 (MOLT-4) was > 100 µM (inactive), the GI50 (SK-MEL-28) was > 100 µM (inactive) and the GI50 (LXFL 529) was > 100 µM (inactive). For the same compound, the GI50 (DMS-114) was > 100 µM (inactive), the GI50 (SNB-75) was > 100 µM (inactive) and the GI50 (CCRF-CEM) was > 100 µM (inactive). For the same compound, the GI50 (KM-20L2) was > 100 µM (inactive), the GI50 (SK-OV-3) was > 100 µM (inactive) and the GI50 (SF-295) was > 100 µM (inactive).
